In brackets after ≈: the same amount, converted by molar mass. Where only a bound is given, the exact number is not on record here.

Assay [1] has as its system Plasmodium falciparum. The assay is described as follows: In vitro antimalarial activity against chloroquine-resistant Plasmodium falciparum K1. The assay is classed as functional, organism-based.
Assay [2] has as its system Plasmodium falciparum. The assay is described as follows: In vitro antimalarial activity against chloroquine-sensitive Plasmodium falciparum 3D7. The assay is classed as functional, organism-based.

Usually IC50 stands for the concentration at which inhibition is half-maximal. Read a low IC50 as greater potency in that assay. For `C=C1CO[C@@H]2O[C@]3(C)CC[C@H]4[C@H](C)CC[C@@H]1[C@@]24OO3`, the IC50 in the assay with Plasmodium falciparum [1] and in the assay with Plasmodium falciparum [2] was 0.02 µg/mL (≈ 0.0751 µM) throughout.

Turning to `C[C@@H]1CC[C@H]2[C@@H](C=O)CO[C@@H]3O[C@]4(C)CC[C@@H]1[C@]32OO4`, the IC50 with Plasmodium falciparum [1] worked out at 3.01 µg/mL (≈ 10.7 µM); in the assay with Plasmodium falciparum [2] it was 0.12 µg/mL (≈ 0.425 µM).

With `C[C@@H]1CC[C@H]2[C@@H](C(=O)O)CO[C@@H]3O[C@]4(C)CC[C@@H]1[C@]32OO4`, the IC50 in the assay on Plasmodium falciparum [1] was 0.65 µg/mL (≈ 2.18 µM); in the assay with Plasmodium falciparum [2], 1.09 µg/mL (≈ 3.65 µM).

For the molecule `C[C@@H]1CC[C@@H]2[C@]34OO[C@@](C)(CC[C@@H]13)O[C@H]4OC[C@]2(C)O`, the IC50 in the assay on Plasmodium falciparum [1] worked out at 0.05 µg/mL (≈ 0.176 µM); in the assay with Plasmodium falciparum [2], 0.07 µg/mL (≈ 0.246 µM).

Consider `C[C@@H]1CC[C@H]2[C@@H](COC[C@H]3CO[C@@H]4O[C@]5(C)CC[C@H]6[C@H](C)CC[C@@H]3[C@@]46OO5)CO[C@@H]3O[C@@]4(C)CC[C@@H]1[C@]32OO4`, for which the figures for the IC50 in the assay with Plasmodium falciparum [1] and in the assay on Plasmodium falciparum [2] were 0.02 µg/mL (≈ 0.0363 µM) and 0.04 µg/mL (≈ 0.0726 µM), respectively.

With `C[C@@H]1CC[C@H]2C(=O)CO[C@@H]3O[C@]4(C)CC[C@@H]1[C@]32OO4`, the IC50 with Plasmodium falciparum [1] is 0.006 µg/mL (≈ 0.0224 µM); with Plasmodium falciparum [2] it was 0.02 µg/mL (≈ 0.0745 µM).

Take `C[C@@H]1CC[C@H]2[C@@]3(CO[C@@H]4O[C@]5(C)CC[C@@H]1[C@]42OO5)CO3`: the IC50 is 0.01 µg/mL (≈ 0.0354 µM) in the assay on Plasmodium falciparum [1] and 0.03 µg/mL (≈ 0.106 µM) in the assay on Plasmodium falciparum [2].

For `C[C@@H]1CC[C@H]2[C@H](CO)CO[C@@H]3O[C@]4(C)CC[C@@H]1[C@]32OO4`, the figures for the IC50 in the assay on Plasmodium falciparum [1] and in the assay on Plasmodium falciparum [2] were 0.05 µg/mL (≈ 0.176 µM) and 0.06 µg/mL (≈ 0.211 µM), respectively.

As for `C[C@@H]1CC[C@H]2[C@@H](CBr)CO[C@@H]3O[C@]4(C)CC[C@@H]1[C@]32OO4`, the IC50 worked out at 0.003 µg/mL (≈ 0.00864 µM) in the assay on Plasmodium falciparum [1] and 0.01 µg/mL (≈ 0.0288 µM) with Plasmodium falciparum [2].

Consider `C[C@@H]1CC[C@H]2[C@@H](COS(C)(=O)=O)CO[C@@H]3O[C@]4(C)CC[C@@H]1[C@]32OO4`, for which the IC50 in the assay on Plasmodium falciparum [1] came to 0.06 µg/mL (≈ 0.166 µM); in the assay with Plasmodium falciparum [2], 0.09 µg/mL (≈ 0.248 µM).

Consider `C[C@@H]1CC[C@H]2[C@H](C=O)CO[C@@H]3O[C@]4(C)CC[C@@H]1[C@]32OO4`, for which the IC50 in the assay on Plasmodium falciparum [1] is 0.46 µg/mL (≈ 1.63 µM); in the assay on Plasmodium falciparum [2], 2.02 µg/mL (≈ 7.15 µM).

Consider `C[C@@H]1CC[C@H]2[C@@H](CO)CO[C@@H]3O[C@]4(C)CC[C@@H]1[C@]32OO4`, for which the figures for the IC50 in the assay with Plasmodium falciparum [1] and in the assay with Plasmodium falciparum [2] were 0.0006 µg/mL (≈ 0.00211 µM) and less than 0.0001 µg/mL, respectively.

`Cc1ccc(S(=O)(=O)OC[C@H]2CO[C@@H]3O[C@]4(C)CC[C@H]5[C@H](C)CC[C@@H]2[C@@]35OO4)cc1`: the figures for the IC50 in the assay with Plasmodium falciparum [1] and with Plasmodium falciparum [2] were 0.05 µg/mL (≈ 0.114 µM) and 0.3 µg/mL (≈ 0.684 µM), respectively.

With `C[C@@H]1CC[C@H]2[C@H](CBr)CO[C@@H]3O[C@]4(C)CC[C@@H]1[C@]32OO4`, the IC50 in the assay with Plasmodium falciparum [1] is less than 0.0001 µg/mL; in the assay with Plasmodium falciparum [2] it was 0.0002 µg/mL (≈ 0.000576 µM).

On to `C[C@@H]1CC[C@H]2[C@@H](C)C(=O)O[C@@H]3O[C@@]4(C)CC[C@@H]1[C@]32OO4` [ARTEMISININ], for which the figures for the IC50 with Plasmodium falciparum [1] and in the assay with Plasmodium falciparum [2] were 0.002 µg/mL (≈ 0.00708 µM) and 0.01 µg/mL (≈ 0.0354 µM), respectively.

As for `CCO[C@H]1O[C@@H]2O[C@@]3(C)CC[C@H]4[C@H](C)CC[C@@H]([C@H]1C)[C@@]24OO3` [ARTEMOTIL], the IC50 in the assay on Plasmodium falciparum [1] and with Plasmodium falciparum [2] was less than 0.0001 µg/mL each time.

With `C[C@H]1[C@H](OC(=O)CCC(=O)O)O[C@@H]2O[C@@]3(C)CC[C@H]4[C@H](C)CC[C@@H]1[C@@]24OO3` [ARTESUNATE], the IC50 with Plasmodium falciparum [1] stood at 0.0006 µg/mL (≈ 0.00156 µM); in the assay on Plasmodium falciparum [2], 0.0002 µg/mL (≈ 0.00052 µM).

The values above are taken from ChEMBL document CHEMBL1147530, “Antimalarial activities of (+)-deoxoartemisitene and its novel C-11, 13 derivatives” (Bioorg Med Chem Lett, 2004).
